In patent US12590083B2, “Inhibitors of spinster homolog 2 (SPNS2) for use in therapy” (University of Virginia Patent Foundation, priority 2019, dated 2026):
Where a name gives a salt, the structure may show the parent alone.

Molecular target: T1, human SPNS2 (Homo sapiens, UniProt Q8IVW8)
T1 construct: expressed in transfected cells; host or cells: Saccharomyces cerevisiae strain with forced expression of a mammalian SphK and human SPNS2
T1 sequence (Q8IVW8 1-549): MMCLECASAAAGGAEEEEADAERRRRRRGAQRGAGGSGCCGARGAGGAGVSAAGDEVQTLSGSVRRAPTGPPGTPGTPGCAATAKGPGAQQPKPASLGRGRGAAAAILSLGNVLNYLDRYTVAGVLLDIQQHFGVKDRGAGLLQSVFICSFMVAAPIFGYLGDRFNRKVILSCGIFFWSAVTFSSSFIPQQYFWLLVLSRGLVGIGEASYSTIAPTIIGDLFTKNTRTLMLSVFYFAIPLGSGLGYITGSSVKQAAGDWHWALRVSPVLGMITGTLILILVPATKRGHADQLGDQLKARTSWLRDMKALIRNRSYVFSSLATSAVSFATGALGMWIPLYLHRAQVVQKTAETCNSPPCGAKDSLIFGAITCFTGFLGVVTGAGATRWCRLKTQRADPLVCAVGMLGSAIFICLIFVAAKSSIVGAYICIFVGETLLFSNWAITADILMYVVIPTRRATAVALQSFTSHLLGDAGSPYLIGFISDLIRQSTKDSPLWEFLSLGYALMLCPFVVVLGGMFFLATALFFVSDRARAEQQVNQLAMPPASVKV
Experiment: S1P transporter assay: growth of S. cerevisiae strain with forced expression of a mammalian SphK and human SPNS2
Format: cell-based
Settings: in vitro inhibition of SPNS2; growth of S. cerevisiae strain expressing mammalian SphK and human SPNS2; compounds as their pharmaceutical salts
Text: Transporter assays are vectorial and, therefore, require measurement of the transported analyte in different compartments. The assay of S1P transporters is problematic because S1P is exported, but not imported, by SPNS2, which obviates measuring uptake of mass- or radio-labeled S1P into transporter-expressing cells.
To assay for SPNS2 inhibitor hits, we took advantage of the growth inhibitory effects of excessive levels of phosphorylated Long Chain Base (phospho-LCB) levels on the budding yeast, S. cerevisiae (Kharel Y, et al. Saccharomyces cerevisiae as a platform for assessing sphingolipid lipid kinase inhibitors. PLoS One 13, e0192179 (2018) PMC5908134). Yeast lack the desaturase that converts dihydroceramide to ceramide and, therefore, have neither sphingosine nor S1P. Rather, yeast have the reduced form, dihydrosphingosine, and the 4-hydroxyl analog, phytosphingosine and their respective phosphates. Like all eukaryotes, the yeast synthesizes (via LCB kinases (SphKs)) and degrades (via phospho-LCB lyase and phosphatase) phospho-LCBs, (dhS1P, phytoS1P). Yeast lack phospho-LCB transporters such as SPNS2, which are found only in vertebrates. To assess inhibition of SPNS2 in vitro, we used a strain of S. cerevisiae wherein expression of a mammalian SphK and human SPNS2 were forced. SPNS2 inhibitors decrease the growth of this strain. Table 2 below presents in vitro inhibition data against SPNS2 for exemplary compounds, presented here as their pharmaceutical salts, of the disclosure (A≤2 μM, B>2 μM).

| IC50 [nM] | Compound |
| --- | --- |
| ≤ 2000 | C/C(=N\OCc1cc(C(F)(F)F)cc(C(F)(F)F)c1)c1ccc(-c2noc([C@@H]3CCNC3)n2)cc1 [Compound 38b, (R)-1-(4-(5-(pyrrolidin-3-yl)-1,2,4-oxadiazol-3-yl)phenyl)ethan-1-one O-(3,5-bis(trifluoromethyl)benzyl) oxime hydrochloride] |
| > 2000 | CCCCCCCCCO/N=C(\C)c1ccc(-c2noc([C@@H]3CCNC3)n2)cc1 [Compound 38j, hydrochloride] |
| ≤ 2000 | C/C(=N\OCc1ccc(-c2ccccc2)cc1)c1ccc(-c2noc([C@@H]3CCN(C(=N)N)C3)n2)cc1 [Compound 40d, (R)-3-(3-(4-(1-(([1,1′-biphenyl]-4-ylmethoxy)imino)ethyl)phenyl)-1,2,4-oxadiazol-5-yl)pyrrolidine-1-carboximidamide hydrochloride] |
| ≤ 2000 | CCCCCCCCCc1ccc(-c2noc([C@@H]3CCCN(C(=N)N)C3)n2)cc1C(F)(F)F [Compound 30d, (R)-3-(3-(4-nonyl-3-(trifluoromethyl)phenyl)-1,2,4-oxadiazol-5-yl)piperidine-1-carboximidamide hydrochloride] |
| ≤ 2000 | C/C(=N\OCc1cc(C(F)(F)F)cc(C(F)(F)F)c1)c1ccc(-c2noc([C@@H]3CCN(C(=N)N)C3)n2)cc1 [Compound 40b, (R)-3-(3-(4-(1-(((3,5-bis(trifluoromethyl)benzyl)oxy)imino)ethyl)phenyl)-1,2,4-oxadiazol-5-yl)pyrrolidine-1-carboximidamide hydrochloride] |
| ≤ 2000 | C/C(=N\OCc1ccc(C(C)(C)C)cc1)c1ccc(-c2noc([C@@H]3CCNC3)n2)cc1 [Compound 38k, (R,E)-1-(4-(5-(pyrrolidin-3-yl)-1,2,4-oxadiazol-3-yl)phenyl)ethan-1-one O-(4-(tert-butyl)benzyl) oxime hydrochlorid] |
| > 2000 | CCCCNC(=O)c1ccc(-c2noc([C@@H]3CCNC3)n2)cc1 [Compound 38o, (R)—N-butyl-4-(5-(pyrrolidin-3-yl)-1,2,4-oxadiazol-3-yl)benzamide hydrochloride] |
| > 2000 | CCCCCCCCCCCc1ccc(-c2noc(C3CN(C(=N)N)C3)n2)cc1C(F)(F)F [Compound 30c, 3-(3-(3-(trifluoromethyl)-4-undecylphenyl)-1,2,4-oxadiazol-5-yl)azetidine-1-carboximidamide hydrochloride] |

Further lines, the molecule ahead of its results:

| Compound | IC50 [nM] |
| --- | --- |
| CCCCCCCCCCc1ccc(-c2noc(C[C@H]3CCNC3)n2)cc1 [Compound 5l, (R)-3-(4-decylphenyl)-5-(pyrrolidin-3-ylmethyl)-1,2,4-oxadiazole 2,2,2-trifluoroacetate] | ≤ 2000 |
| N=C(N)N1CC[C@@H](c2nc(-c3ccc(Nc4cc(Br)ccc4Br)nc3)no2)C1 [Compound 15f, (R)-3-(3-(6-((2,5-dibromophenyl)amino)pyridin-3-yl)-1,2,4-oxadiazol-5-yl)pyrrolidine-1-carboximidamide hydrochloride] | > 2000 |
| CCCCCCCCCCc1ccc(-c2noc([C@@H]3CCCNC3)n2)cc1C(F)(F)F [Compound 28e, (R)-3-(4-decyl-3-(trifluoromethyl)phenyl)-5-(piperidin-3-yl)-1,2,4-oxadiazole hydrochloride] | > 2000 |
| CCCCCCCCCOc1ccc(-c2noc([C@@H]3CCCN(C(=N)N)C3)n2)cc1C(F)(F)F [Compound 23e, (R)-3-(3-(4-(nonyloxy)-3-(trifluoromethyl)phenyl)-1,2,4-oxadiazol-5-yl)piperidine-1-carboximidamide hydrochloride] | ≤ 2000 |
| CCCCCCCCc1ccc(-c2noc(C3CN(C(=N)N)C3)n2)cc1 [Compound 7d, 3-(3-(4-octylphenyl)-1,2,4-oxadiazol-5-yl)azetidine-1-carboximidamide hydrochloride] | > 2000 |
| CCCCCCCOc1ccc(-c2noc([C@@H]3CCCNC3)n2)cc1C(F)(F)F [Compound 21c, (R)-3-(4-(heptyloxy)-3-(trifluoromethyl)phenyl)-5-(piperidin-3-yl)-1,2,4-oxadiazole hydrochloride] | > 2000 |
| c1cc(N2CCCCC2)ncc1-c1noc([C@@H]2CCNC2)n1 [Compound 13a, (R)-3-(6-(piperidin-1-yl)pyridin-3-yl)-5-(pyrrolidin-3-yl)-1,2,4-oxadiazole hydrochloride] | > 2000 |
| CCCCCCCCCCCc1ccc(-c2noc([C@@H]3CCCNC3)n2)cc1C(F)(F)F [Compound 28f, (R)-5-(piperidin-3-yl)-3-(3-(trifluoromethyl)-4-undecylphenyl)-1,2,4-oxadiazole hydrochloride] | > 2000 |
| CCCCCCCCCCCc1ccc(-c2noc(C3CNC3)n2)cc1 [Compound 5a, 5-(azetidin-3-yl)-3-(4-undecylphenyl)-1,2,4-oxadiazole 2,2,2-trifluoroacetate] | > 2000 |
| CCCCCCCCCCc1ccc(-c2noc([C@@H]3CCNC3)n2)cc1 [Compound 5g, (R)-3-(3-(4-decylphenyl)-1,2,4-oxadiazol-5-yl)pyrrolidin-1-ium 2,2,2-trifluoroacetate] | > 2000 |
| CCCCCCCCCc1ccc(-c2noc([C@@H]3CCCN(C(=N)N)C3)n2)cc1 [Compound 7yb, (R)-3-(3-(4-nonylphenyl)-1,2,4-oxadiazol-5-yl)piperidine-1-carboximidamide hydrochloride] | ≤ 2000 |
| CCCCCCCCCCc1ccc(-c2noc(CC3CNC3)n2)cc1 [Compound 5j, 5-(azetidin-3-ylmethyl)-3-(4-decylphenyl)-1,2,4-oxadiazole 2,2,2-trifluoroacetate] | ≤ 2000 |
| CCCCCCCCCOc1ccc(-c2noc([C@@H]3CCCNC3)n2)cc1C(F)(F)F [Compound 12e] | ≤ 2000 |
| CCCCCCCCOc1ccc(-c2noc([C@@H]3CCCNC3)n2)cc1C(F)(F)F [Compound 21d, (R)-3-(4-(octyloxy)-3-(trifluoromethyl)phenyl)-5-(piperidin-3-yl)-1,2,4-oxadiazole hydrochloride] | > 2000 |
| CCCCCCCCCCOc1ccc(-c2noc([C@@H]3CCCN(C(=N)N)C3)n2)cc1C(F)(F)F [Compound 23f, (R)-3-(3-(4-(decyloxy)-3-(trifluoromethyl)phenyl)-1,2,4-oxadiazol-5-yl)piperidine-1-carboximidamide hydrochloride] | ≤ 2000 |
| N=C(N)N1CC(c2nc(-c3ccc(OCc4ccc(C(F)(F)F)cc4)c(C(F)(F)F)c3)no2)C1 [Compound 23g, 3-(3-(3-(trifluoromethyl)-4-((4-(trifluoromethyl)benzyl)oxy)phenyl)-1,2,4-oxadiazol-5-yl)azetidine-1-carboximidamide hydrochloride] | > 2000 |
| N=C(N)N1CCC[C@@H](c2nc(-c3ccc(Nc4ccc(OC(F)(F)F)c(F)c4)nc3)no2)C1 [Compound 15c, (R)-3-(3-(6-((3-fluoro-4-(trifluoromethoxy)phenyl)amino)pyridin-3-yl)-1,2,4-oxadiazol-5-yl)piperidine-1-carboximidamide hydrochloride] | > 2000 |
| CC(C)(C)c1cccc(Nc2ccc(-c3noc([C@@H]4CCN(C(=N)N)C4)n3)cn2)c1 [Compound 15g, (R)-3-(3-(6-((3-(tert-butyl)phenyl)amino)pyridin-3-yl)-1,2,4-oxadiazol-5-yl)pyrrolidine-1-carboximidamide hydrochloride] | > 2000 |
| CCCCCCCCCCCc1ccc(-c2noc([C@@H]3CCN(C(=N)N)C3)n2)cc1 [Compound 7xa, (R)-3-(3-(4-undecylphenyl)-1,2,4-oxadiazol-5-yl)pyrrolidine-1-carboximidamide hydrochloride] | ≤ 2000 |
| CCCCCCCCCCc1ccc(-c2noc(CC3CN(C(=N)N)C3)n2)cc1 [Compound 7i] | ≤ 2000 |
| CCCCCCCCNc1ccc(-c2noc([C@@H]3CCN(C(=N)N)C3)n2)cn1 [Compound 15b, (R)-3-(3-(6-(octylamino)pyridin-3-yl)-1,2,4-oxadiazol-5-yl)pyrrolidine-1-carboximidamide hydrochloride] | > 2000 |
| FC(F)(F)c1cc(-c2noc([C@@H]3CCCNC3)n2)ccc1OCCCc1ccccc1 [Compound 21j, (R)-3-(4-(3-phenylpropoxy)-3-(trifluoromethyl)phenyl)-5-(piperidin-3-yl)-1,2,4-oxadiazole hydrochloride] | > 2000 |
| CC(C)(C)c1cccc(Nc2ccc(-c3noc([C@@H]4CCNC4)n3)cn2)c1 [Compound 13g, (R)—N-(3-(tert-butyl)phenyl)-5-(5-(pyrrolidin-3-yl)-1,2,4-oxadiazol-3-yl)pyridin-2-amine hydrochloride] | > 2000 |
